Data from patent US20250206727A1, “HETEROCYCLIC SUBSTITUTED AROMATIC COMPOUND, PREPARATION METHOD THEREFOR, HERBICIDAL COMPOSITION AND APPLICATION” (QINGDAO KINGAGROOT CHEMICAL COMPOUND CO., LTD., priority 2022, published 2025).

Legend:
Assay in all cases: Post-emergence test on weeds (greenhouse, spray at 2-3 leaf stage)
Type in all cases: in vivo
Design in all cases: key: Level 10: completely dead; Level 9: growth control rate greater than or equal to 90% and less than 100%; Level 8: growth control rate greater than or equal to 80% and less than 90%; Level 7: growth control rate greater than or equal to 70% and less than 80%; Level 6: growth control rate greater than or equal to 60% and less than 70%; Level 5: growth control rate greater than or equal to 50% and less than 60%; Level 4: growth control rate greater than or equal to 40% and less than 50%; Level 3: growth control rate greater than or equal to 30% and less than 40%; Level 2: growth control rate greater than or equal to 20% and less than 30%; Level 1: growth control rate less than 20%; Level 0: no effect
Conditions in all cases: 3 weeks after application
Abutilon theophrasti = system: Abutilon theophrasti
From the text: (§1) The activity level criteria for plant damage (i.e., growth control rate) are as follows: • Level 10: completely dead; • Level 9: growth control rate greater than or equal to 90% and less than 100%; • Level 8: growth control rate greater than or equal to 80% and less than 90%; • Level 7: growth control rate greater than or equal to 70% and less than 80%; • Level 6: growth control rate greater than or equal to 60% and less than 70%; • Level 5: growth control rate greater than or equal to 50% and less than 60%; • Level 4: growth control rate greater than or equal to 40% and less than 50%; • Level 3: growth control rate greater than or equal to 30% and less than 40%; • Level 2: growth control rate greater than or equal to 20% and less than 30%; • Level 1: growth control rate less than 20%; • Level 0: no effect.
(§2) The above growth control rates are fresh weight control rates.
(§3) Monocotyledonous and dicotyledonous weed seeds (Descurainia sophia, Capsella bursa-pastoris, Abutilon theophrasti, Galium spurium, Stellaria media, Lithospermum arvense, Rorippa indica, Alopecurus aequalis, Alopecurus japonicus, Eleusine indica, Beckmannia syzigachne, Sclerochloa dura, Erigeron canadensis, Phleum paniculatum, Veronica polita, Bromus japonicus, Aegilops tauschii, Phalaris arundinacea, Amaranthus retrofexus, Chenopodium, Commelina communis, Cichorium endivia, Convolvulus arvensis, Cirsium arvense, Solanum nigrum, Acalypha australis, Digitaria sanguinalis, Echinochloa crus-galli, Setaria viridis, Setaa pumila, Lepochloa chinensis, Monochona vaginalis, Sagitta trifolia, Schoenoplectiella juncoides, Cypenus rotundus, Cyperus ira, Cyperus difformis, Fimbristylis, Portulaca oleracea, Xanthium sibiricum, Ipomoea nil, Eschenbachia japonica, etc.) and major crop seeds (wheat, maize, paddy rice, soybean, cotton, oilseed rape, millet, sorghum, potato, sesame, castor plant, etc.) were placed in plastic pots filled with soil and then covered with 0.5-2 cm of soil to allow them to grow in a favorable greenhouse environment. Two weeks after sowing, the test plants were treated at the stage of 2-3 leaves. The test compounds of the present invention were individually dissolved with acetone, then added with Tween® 80, with 1.5 L/ha of methyl oleate emulsifiable concentrate as a synergist, diluted into solutions of certain concentrations using certain amount of water, and sprayed to the plants using a spray tower. After drug application, the experimental results on weeds were collected after 3 weeks of cultivation in a greenhouse. The compounds were applied at 500, 250, […], 15, and 7.5 g a.i./ha in triplicate, and the results were averaged.

Veronica polita = system: Veronica polita
From the text: as §1, §2, §3

Echinochloa crus-galli = system: Echinochloa crus-galli
From the text: as §1, §2, §3

Digitaria sanguinalis = system: Digitaria sanguinalis
From the text: as §1, §2, §3

Amaranthus retroflexus = system: Amaranthus retroflexus
From the text: as §1, §2, §3

Setaria viridis = system: Setaria viridis
From the text: as §1, §2, §3

COC(=O)C1(C)ON=C(c2cc(-c3ncc(C)cc3Cl)c(F)cc2Cl)O1 (stereo not drawn) [Compound 12]
10: activity level (fresh weight growth control rate), Abutilon theophrasti (Abutilon theophrasti; 60 g a.i./ha) | activity level (fresh weight growth control rate), Veronica polita (Veronica polita; 60 g a.i./ha) | activity level (fresh weight growth control rate), Echinochloa crus-galli (Echinochloa crus-galli; 60 g a.i./ha) | activity level (fresh weight growth control rate), Digitaria sanguinalis (Digitaria sanguinalis; 60 g a.i./ha) | activity level (fresh weight growth control rate), Amaranthus retroflexus (Amaranthus retroflexus; 60 g a.i./ha) | activity level (fresh weight growth control rate), Setaria viridis (Setaria viridis; 60 g a.i./ha)

COC(=O)C1(C)ON=C(c2cc(-c3ncc(Cl)cc3F)c(F)cc2Cl)O1 (stereo not drawn) [Compound 13]
10: activity level (fresh weight growth control rate), Abutilon theophrasti (Abutilon theophrasti; 60 g a.i./ha) | activity level (fresh weight growth control rate), Veronica polita (Veronica polita; 60 g a.i./ha) | activity level (fresh weight growth control rate), Echinochloa crus-galli (Echinochloa crus-galli; 60 g a.i./ha) | activity level (fresh weight growth control rate), Digitaria sanguinalis (Digitaria sanguinalis; 60 g a.i./ha) | activity level (fresh weight growth control rate), Amaranthus retroflexus (Amaranthus retroflexus; 60 g a.i./ha) | activity level (fresh weight growth control rate), Setaria viridis (Setaria viridis; 60 g a.i./ha)

COC(=O)C1(C)ON=C(c2cc(-c3ncc(F)cc3Cl)c(F)cc2Cl)O1 (stereo not drawn) [Compound 14]
10: activity level (fresh weight growth control rate), Abutilon theophrasti (Abutilon theophrasti; 60 g a.i./ha) | activity level (fresh weight growth control rate), Veronica polita (Veronica polita; 60 g a.i./ha) | activity level (fresh weight growth control rate), Echinochloa crus-galli (Echinochloa crus-galli; 60 g a.i./ha) | activity level (fresh weight growth control rate), Digitaria sanguinalis (Digitaria sanguinalis; 60 g a.i./ha) | activity level (fresh weight growth control rate), Amaranthus retroflexus (Amaranthus retroflexus; 60 g a.i./ha) | activity level (fresh weight growth control rate), Setaria viridis (Setaria viridis; 60 g a.i./ha)

COC(=O)C1(C)ON=C(c2cc(-c3ncc(C(F)(F)F)cc3Cl)c(F)cc2Cl)O1 (stereo not drawn) [Compound 15]
10: activity level (fresh weight growth control rate), Abutilon theophrasti (Abutilon theophrasti; 15 g a.i./ha) | activity level (fresh weight growth control rate), Veronica polita (Veronica polita; 15 g a.i./ha) | activity level (fresh weight growth control rate), Echinochloa crus-galli (Echinochloa crus-galli; 15 g a.i./ha) | activity level (fresh weight growth control rate), Digitaria sanguinalis (Digitaria sanguinalis; 15 g a.i./ha) | activity level (fresh weight growth control rate), Amaranthus retroflexus (Amaranthus retroflexus; 15 g a.i./ha) | activity level (fresh weight growth control rate), Setaria viridis (Setaria viridis; 15 g a.i./ha)

CCC1(C(=O)OC)ON=C(c2cc(-c3ncc(Cl)cc3F)c(F)cc2Cl)O1 (stereo not drawn) [Compound 16]
10: activity level (fresh weight growth control rate), Abutilon theophrasti (Abutilon theophrasti; 60 g a.i./ha) | activity level (fresh weight growth control rate), Veronica polita (Veronica polita; 60 g a.i./ha) | activity level (fresh weight growth control rate), Echinochloa crus-galli (Echinochloa crus-galli; 60 g a.i./ha) | activity level (fresh weight growth control rate), Digitaria sanguinalis (Digitaria sanguinalis; 60 g a.i./ha) | activity level (fresh weight growth control rate), Amaranthus retroflexus (Amaranthus retroflexus; 60 g a.i./ha) | activity level (fresh weight growth control rate), Setaria viridis (Setaria viridis; 60 g a.i./ha)

CCC1(C(=O)OC)ON=C(c2cc(-c3ncc(C(F)(F)F)cc3Cl)c(F)cc2Cl)O1 (stereo not drawn) [Compound 17]
10: activity level (fresh weight growth control rate), Abutilon theophrasti (Abutilon theophrasti; 60 g a.i./ha) | activity level (fresh weight growth control rate), Veronica polita (Veronica polita; 60 g a.i./ha) | activity level (fresh weight growth control rate), Echinochloa crus-galli (Echinochloa crus-galli; 60 g a.i./ha) | activity level (fresh weight growth control rate), Digitaria sanguinalis (Digitaria sanguinalis; 60 g a.i./ha) | activity level (fresh weight growth control rate), Amaranthus retroflexus (Amaranthus retroflexus; 60 g a.i./ha) | activity level (fresh weight growth control rate), Setaria viridis (Setaria viridis; 60 g a.i./ha)

CCC1(C(=O)OC)ON=C(c2cc(-c3ncc(C(F)(F)F)cc3F)c(F)cc2Cl)O1 (stereo not drawn) [Compound 19]
10: activity level (fresh weight growth control rate), Abutilon theophrasti (Abutilon theophrasti; 60 g a.i./ha) | activity level (fresh weight growth control rate), Veronica polita (Veronica polita; 60 g a.i./ha) | activity level (fresh weight growth control rate), Echinochloa crus-galli (Echinochloa crus-galli; 60 g a.i./ha) | activity level (fresh weight growth control rate), Digitaria sanguinalis (Digitaria sanguinalis; 60 g a.i./ha) | activity level (fresh weight growth control rate), Amaranthus retroflexus (Amaranthus retroflexus; 60 g a.i./ha) | activity level (fresh weight growth control rate), Setaria viridis (Setaria viridis; 60 g a.i./ha)

CCCC1(C(=O)OC)ON=C(c2cc(-c3ncc(C(F)(F)F)cc3Cl)c(F)cc2Cl)O1 (stereo not drawn) [Compound 20]
10: activity level (fresh weight growth control rate), Abutilon theophrasti (Abutilon theophrasti; 60 g a.i./ha) | activity level (fresh weight growth control rate), Veronica polita (Veronica polita; 60 g a.i./ha) | activity level (fresh weight growth control rate), Echinochloa crus-galli (Echinochloa crus-galli; 60 g a.i./ha) | activity level (fresh weight growth control rate), Digitaria sanguinalis (Digitaria sanguinalis; 60 g a.i./ha) | activity level (fresh weight growth control rate), Amaranthus retroflexus (Amaranthus retroflexus; 60 g a.i./ha) | activity level (fresh weight growth control rate), Setaria viridis (Setaria viridis; 60 g a.i./ha)

COC(=O)C1(C2CC2)ON=C(c2cc(-c3ncc(Cl)cc3F)c(F)cc2Cl)O1 (stereo not drawn) [Compound 21]
10: activity level (fresh weight growth control rate), Abutilon theophrasti (Abutilon theophrasti; 60 g a.i./ha) | activity level (fresh weight growth control rate), Veronica polita (Veronica polita; 60 g a.i./ha) | activity level (fresh weight growth control rate), Echinochloa crus-galli (Echinochloa crus-galli; 60 g a.i./ha) | activity level (fresh weight growth control rate), Digitaria sanguinalis (Digitaria sanguinalis; 60 g a.i./ha) | activity level (fresh weight growth control rate), Amaranthus retroflexus (Amaranthus retroflexus; 60 g a.i./ha) | activity level (fresh weight growth control rate), Setaria viridis (Setaria viridis; 60 g a.i./ha)

CCOC(=O)C1ON=C(c2cc(-c3ccc(C(F)(F)F)cn3)c(F)cc2Cl)O1 (stereo not drawn) [Compound 23]
10: activity level (fresh weight growth control rate), Abutilon theophrasti (Abutilon theophrasti; 60 g a.i./ha) | activity level (fresh weight growth control rate), Veronica polita (Veronica polita; 60 g a.i./ha) | activity level (fresh weight growth control rate), Echinochloa crus-galli (Echinochloa crus-galli; 60 g a.i./ha) | activity level (fresh weight growth control rate), Digitaria sanguinalis (Digitaria sanguinalis; 60 g a.i./ha) | activity level (fresh weight growth control rate), Amaranthus retroflexus (Amaranthus retroflexus; 60 g a.i./ha) | activity level (fresh weight growth control rate), Setaria viridis (Setaria viridis; 60 g a.i./ha)

CCOC(=O)C1ON=C(c2cc(-c3ncc(C(F)(F)F)cc3Cl)c(F)cc2Br)O1 (stereo not drawn) [Compound 25]
10: activity level (fresh weight growth control rate), Abutilon theophrasti (Abutilon theophrasti; 60 g a.i./ha) | activity level (fresh weight growth control rate), Veronica polita (Veronica polita; 60 g a.i./ha) | activity level (fresh weight growth control rate), Echinochloa crus-galli (Echinochloa crus-galli; 60 g a.i./ha) | activity level (fresh weight growth control rate), Digitaria sanguinalis (Digitaria sanguinalis; 60 g a.i./ha) | activity level (fresh weight growth control rate), Amaranthus retroflexus (Amaranthus retroflexus; 60 g a.i./ha) | activity level (fresh weight growth control rate), Setaria viridis (Setaria viridis; 60 g a.i./ha)
